The source of these data is PubChem BioAssay AID214 (DTP/NCI, 2004).

This experiment has as its system B6C3F1 mice, colon carcinoma 38 s.c., T/C. In words: NCI In Vivo Anticancer Drug Screen. Data for tumor model Colon Carcinoma 38 (subcutaneous) in B6C3F1 mice. The note with it: endpoint: median tumor weight (est.), higher = larger tumour. The procedure:
The antitumor activity of compounds was measured in mice bearing transplantable tumors. Survival or tumor size were measured and the results are expressed as the measurement made in the treated group (T) divided by the measurement made in the vehicle treated control group (C). The tumor model used in this assay is Colon Carcinoma 38 (subcutaneous) in B6C3F1 mice

[1] abbreviates: dose: 50.0 mg/kg/injection, schedule: Q07DX002 (ip), vehicle: saline with Tween-80.
[2] abbreviates: dose: 100.0 mg/kg/injection, schedule: Q07DX002 (ip), vehicle: Klucel (hydroxypropylcellulose) (HPC).
Where [3] appears, read: dose: 100.0 mg/kg/injection, schedule: Q07DX002 (ip), vehicle: saline with Tween-80.
[4] abbreviates: dose: 400.0 mg/kg/injection, schedule: Q07DX002 (ip), vehicle: saline with Tween-80.

Several values for one entry are separate records, joined by “and”; a condition that tells them apart may be missing. Equal entries are not always repeated. Inconclusive results are not listed.

As to `O=[N+]([O-])c1ccc(N(CCO)CCO)c2c1no[n+]2[O-]`, the T/C runs as follows: (dose: 25.0 mg/kg/injection, schedule: Q07DX002 (ip), vehicle: saline with Tween-80) 85 % of control; under setting [1], 63 % of control.
As to `O=c1[nH]cccc1O`, the T/C is 91 % of control (dose: 62.5 mg/kg/injection, schedule: Q07DX002 (ip), vehicle: saline with Tween-80); 90 % of control and 97 % of control (dose: 125.0 mg/kg/injection, schedule: Q07DX002 (ip), vehicle: saline with Tween-80); 90 % of control and 95 % of control (dose: 250.0 mg/kg/injection, schedule: Q07DX002 (ip), vehicle: saline with Tween-80); 95 % of control and 70 % of control (dose: 500.0 mg/kg/injection, schedule: Q07DX002 (ip), vehicle: saline with Tween-80); 74 % of control (dose: 1000.0 mg/kg/injection, schedule: Q07DX002 (ip), vehicle: saline with Tween-80).
In the case of `CO[C@H]1C[C@](C)(O)Cc2cc3c(c(O)c21)C(=O)c1c(O)cc2c(c1C3=O)O[C@@H]1O[C@@]2(C)[C@H](O)[C@@H](N(C)C)[C@@H]1O`, the T/C is 124 % of control (dose: 12.5 mg/kg/injection, schedule: Q07DX002 (ip), vehicle: other); 102 % of control (dose: 25.0 mg/kg/injection, schedule: Q07DX002 (ip), vehicle: other); 56 % of control (dose: 50.0 mg/kg/injection, schedule: Q07DX002 (ip), vehicle: other); 19 % of control (dose: 100.0 mg/kg/injection, schedule: Q07DX002 (ip), vehicle: other).
Regarding `NC(=O)CCC(N)C(=O)O` (centres undefined), the T/C runs as follows: (dose: 75.0 mg/kg/injection, schedule: Q07DX002 (ip), vehicle: suspension in saline) 113 % of control; (dose: 150.0 mg/kg/injection, schedule: Q07DX002 (ip), vehicle: suspension in saline) 43 % of control; (dose: 300.0 mg/kg/injection, schedule: Q07DX002 (ip), vehicle: suspension in saline) 84 % of control; (dose: 600.0 mg/kg/injection, schedule: Q07DX002 (ip), vehicle: suspension in saline) 101 % of control; (dose: 1200.0 mg/kg/injection, schedule: Q07DX002 (ip), vehicle: suspension in saline) 91 % of control.
For `O=C(O)c1cc(Cc2ccc(O)c(C(=O)O)c2)ccc1O` (tested in a mixture with another compound), the T/C (dose: 25.0 mg/kg/injection, schedule: Q07DX002 (ip), vehicle: Klucel (hydroxypropylcellulose) (HPC)) is 71 % of control; the T/C (dose: 50.0 mg/kg/injection, schedule: Q07DX002 (ip), vehicle: Klucel (hydroxypropylcellulose) (HPC)) is 78 % of control; the T/C under setting [2] is 70 % of control; the T/C (dose: 200.0 mg/kg/injection, schedule: Q07DX002 (ip), vehicle: Klucel (hydroxypropylcellulose) (HPC)) was 115 % of control; the T/C (dose: 400.0 mg/kg/injection, schedule: Q07DX002 (ip), vehicle: Klucel (hydroxypropylcellulose) (HPC)) is 63 % of control.
As to `O=C(O)Cc1cccc2c(=O)c(-c3ccccc3)c(-c3ccccc3)oc12`, the T/C under setting [2] is 11 % of control.
Regarding `OCCO`, the T/C is 181 % of control (dose: 1.0 % in 0.5 ml injection vol, schedule: Q07DX002 (ip), vehicle: water) and 160 % of control (dose: 2.0 % in 0.5 ml injection vol, schedule: Q07DX002 (ip), vehicle: water).
Regarding `Cc1c2cc[n+](CCN3CCCCC3)cc2c(C)c2c1[nH]c1ccc(O)cc12`, the T/C is 83 % of control (dose: 6.25 mg/kg/injection, schedule: Q07DX002 (ip), vehicle: suspension in saline); 71 % of control (dose: 12.5 mg/kg/injection, schedule: Q07DX002 (ip), vehicle: suspension in saline); 62 % of control (dose: 25.0 mg/kg/injection, schedule: Q07DX002 (ip), vehicle: suspension in saline); 53 % of control (dose: 50.0 mg/kg/injection, schedule: Q07DX002 (ip), vehicle: suspension in saline); 34 % of control (dose: 100.0 mg/kg/injection, schedule: Q07DX002 (ip), vehicle: suspension in saline).
As for `CN(C)CCCNc1c2ccccc2nc2cccc([N+](=O)[O-])c12`, the T/C is 104 % of control (dose: 0.03 mg/kg/injection, schedule: Q07DX002 (ip), vehicle: saline); 79 % of control and 221 % of control (dose: 0.06 mg/kg/injection, schedule: Q07DX002 (ip), vehicle: saline).
For `O=C(O)Cc1cccc2c(=O)cc(C3CCCCC3)oc12`, the T/C is 90 % of control (dose: 100.0 mg/kg/injection, schedule: Q07DX002 (ip), vehicle: saline) and 82 % of control (dose: 400.0 mg/kg/injection, schedule: Q07DX002 (ip), vehicle: saline).
For the molecule `CC(=O)C(=O)O.CC(=O)C(=O)O.[NH-]C1CCCCC1[NH-].[Pt+2]` (centres undefined), the T/C was 83 % of control (dose: 6.25 mg/kg/injection, schedule: Q07DX002 (ip), vehicle: dextrose); 31 % of control (dose: 12.5 mg/kg/injection, schedule: Q07DX002 (ip), vehicle: dextrose); 31 % of control (dose: 25.0 mg/kg/injection, schedule: Q07DX002 (ip), vehicle: dextrose); 16 % of control (dose: 50.0 mg/kg/injection, schedule: Q07DX002 (ip), vehicle: dextrose).
Take `CCN(CC)c1ccc2[nH]c3c(C(N)=O)cc(=O)c(=O)c=3oc2c1`: the T/C is, setting by setting: under setting [3], 93 % of control; (dose: 200.0 mg/kg/injection, schedule: Q07DX002 (ip), vehicle: saline with Tween-80) 99 % of control; under setting [4], 93 % of control.
As to `N=c1c(C(=O)OCc2ccccc2)ncc(CCl)n1O`, the T/C under setting [1] was 76 % of control; the T/C under setting [3] was 107 % of control; the T/C under setting [4] was 113 % of control; the T/C (dose: 800.0 mg/kg/injection, schedule: Q07DX002 (ip), vehicle: saline with Tween-80) was 72 % of control.
Turning to `N=c1ccn2c(n1)OC1C(O)C(CO)OC12` (centres undefined), the T/C (dose: 100.0 mg/kg/injection, schedule: Q07DX003 (ip), vehicle: saline) is 90 % of control; the T/C (dose: 200.0 mg/kg/injection, schedule: Q07DX003 (ip), vehicle: saline) was 98 % of control; the T/C (dose: 400.0 mg/kg/injection, schedule: Q07DX003 (ip), vehicle: saline) was 92 % of control; the T/C (dose: 800.0 mg/kg/injection, schedule: Q07DX003 (ip), vehicle: saline) was 61 % of control; the T/C (dose: 1600.0 mg/kg/injection, schedule: Q07DX003 (ip), vehicle: saline) is 40 % of control.
